The text below walks through data of US20050282840A1, “Methods of modulating neurotrophin-mediated activity” (PainCeptor Pharma Corporation, priority 2004, published 2005).

Test [1] addresses T1, p75^NTR receptors (PC12 cells) (Rattus norvegicus, UniProt P07174).
T1 construct: endogenous in cells; host or cells: PC12 cells
T1 sequence (P07174 30-425): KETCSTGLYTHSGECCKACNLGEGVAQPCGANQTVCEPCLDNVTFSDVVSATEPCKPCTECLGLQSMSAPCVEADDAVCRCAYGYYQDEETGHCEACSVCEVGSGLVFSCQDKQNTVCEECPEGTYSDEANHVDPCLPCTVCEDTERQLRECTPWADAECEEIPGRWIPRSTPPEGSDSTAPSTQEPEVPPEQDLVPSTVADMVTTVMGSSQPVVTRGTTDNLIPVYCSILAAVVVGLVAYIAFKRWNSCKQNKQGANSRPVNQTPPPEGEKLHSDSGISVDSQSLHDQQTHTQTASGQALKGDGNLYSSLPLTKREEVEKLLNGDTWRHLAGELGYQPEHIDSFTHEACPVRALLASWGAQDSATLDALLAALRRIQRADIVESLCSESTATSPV
T1 sequence (P23560 129-247 partner): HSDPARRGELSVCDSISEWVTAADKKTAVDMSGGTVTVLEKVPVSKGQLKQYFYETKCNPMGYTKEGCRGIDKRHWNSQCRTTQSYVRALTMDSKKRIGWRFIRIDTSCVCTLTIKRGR
Description: Basic screening assay: binding of 125I-BDNF to PC12 cells. The following applies: read-out: BDNF Activity % Maximal Binding. The essentials: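 4×10^6 PC12 cells incubated 2 h at 4° C, rotating, with 0.5 nM ^125I-BDNF (final) and compound at 50 μM, in duplicate or more. Bound ligand separated through 10% glycerol by centrifugation and counted by gamma counter; specific binding is Bmax minus NSB; inhibitors followed up for EC50.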

The subject of test [2] is p75^NTR receptors (PC12 cells). Description: Basic screening assay: binding of 125I-NGF to PC12 cells. The following applies: test compound 50 μM, 0.5 nM 125I-NGF, PC12 cells, 2 h at 4° C., specific binding as percent of control. The essentials: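 PC12 cells (4×10^6) incubated 2 h at 4° C with 0.5 nM 125I-NGF and test compound at 50 μM, rotating. Bound tracer pelleted through 10% glycerol and gamma-counted; specific binding expressed as percent of control after NSB subtraction.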

Setting [3] is: Table 4, test compound 50 μM, 0.5 nM 125I-BDNF, PC12 cells, 2 h at 4° C., specific binding as percent of control.
Setting [4] is: Table 1, test compound 50 μM, 0.5 nM 125I-BDNF, PC12 cells, 2 h at 4° C., specific binding as percent of control.
Setting [5] is: Table 2, test compound 50 μM, 0.5 nM 125I-BDNF, PC12 cells, 2 h at 4° C., specific binding as percent of control.

Like-named read-outs stand apart in the source and are kept apart here. Some results are limits rather than exact numbers.

Regarding `O=C1C(=Cc2ccc(-c3cccc([N+](=O)[O-])c3)o2)SC(=S)N1CCS(=O)(=O)O` [Compound 143, 2-{5-[5-(3-Nitrophenyl)furan-2-ylmethylene]-4-oxo-2-thioxo-thiazolidin-3-yl}-ethanesulfonic acid], the activity at 50 µM in test [1] (setting [3]) is above 50%. The “NGF Activity % Maximal Binding” value in test [2] (Table 4) is reported as “* (50 < *)”.
For `O=C(O)CCCN1C(=O)C(=Cc2ccc(-c3ccc([N+](=O)[O-])cc3)o2)SC1=S` [Compound 98, 4-{5-[5-(4-Nitrophenyl)furan-2-ylmethylene]-4-oxo-2-thioxo-thiazolidin-3-yl}-butyric acid], in that order: above 50% and “* (50 < *)”.
As for `CCOC(=O)c1ccc(N2NC(=O)/C(=C/c3ccc(-c4cccc(C(=O)O)c4)o3)C2=O)cc1` [Compound 57, 3-{5-[3,5-Dioxo-1-phenyl-(4-ethyl ester)-pyrazolidin-4-ylidenemethyl]furan-2-yl}benzoic acid], the activity at 50 µM in test [1] (setting [4]) is 40 to 50%. For the same compound, the “NGF Activity % Maximal Binding” value in test [2] (Table 1) is “* (50 < *)”.
Regarding `COc1cc([N+](=O)[O-])ccc1-c1ccc(C=C2C(=O)ON=C2c2ccccc2)o1` [Compound 56, 4-[5-(2-Methoxy-4-nitrophenyl)furan-2-ylmethylene]-3-phenyl-4H-isoxazol-5-one], in test [1] (setting [4]), the activity at 50 µM is 40 to 50%. Further, the “NGF Activity % Maximal Binding” value in test [2] (Table 1) is reported as “* (50 < *)”.
As for `O=C1NC(=S)NC(=O)C1=Cc1ccc(-c2ccc([N+](=O)[O-])cc2Br)o1` [Compound 1, 5-[5-(2-Bromo-4-nitrophenyl)furan-2-ylmethylene]-2-thioxo-dihydro-pyrimidine-4,6-dione], in test [1], the activity at 50 µM is 0 to 10%. Moreover, the “NGF Activity % Maximal Binding” value in test [2] (Table 1) is listed as “* (50 < *)”.
In the case of `O=C1NC(=O)C(=Cc2ccc(-c3ccc(Cl)c(C(=O)O)c3)o2)C(=O)N1` [Compound 75, 2-Chloro-5-[5-(2,4,6-trioxo-tetrahydro-pyrimidin-5-ylidenemethyl)furan-2-yl]benzoic acid], in test [1], the activity at 50 µM was in the range of 0 to 10%. Also, the “NGF Activity % Maximal Binding” value in test [2] (Table 2) is on record as “X (40 < X < 50)”.
On to `Cc1cccc(N2NC(=O)C(=Cc3ccc(-c4ccc(C(=O)O)cc4)o3)C2=O)c1` [Compound 82, 4-[5-(3,5-Dioxo-1-m-tolyl-pyrazolidin-4-ylidenemethyl)furan-2-yl]benzoic acid], for which the activity at 50 µM in test [1] (setting [5]) fell in the range of 20 to 30%. In addition, the “NGF Activity % Maximal Binding” value in test [2] (Table 2) is “X (40 < X < 50)”.
Take `CCOC(=O)CN1C(=O)S/C(=C/c2ccc(-c3ccc([N+](=O)[O-])cc3OC)o2)C1=O` [Compound 118, {5-[5-(2-Methoxy-4-nitrophenyl)furan-2-ylmethylene]-2,4-dioxo-thiazolidin-3-yl}-acetic acid ethyl ester]: the activity at 50 µM in test [1] (setting [3]) was above 50%. The “NGF Activity % Maximal Binding” value in test [2] (Table 4) was “* (50 < *)”.
For `Cc1cccc(N2NC(=O)/C(=C/c3ccc(-c4ccc(Cl)c([N+](=O)[O-])c4)o3)C2=O)c1` [Compound 44, 4-[5-(4-Chloro-3-nitrophenyl)furan-2-ylmethylene]-1-m-tolyl-pyrazolidine-3,5-dione], in test [1] (setting [4]), the activity at 50 µM lay within 30 to 40%. Also, the “NGF Activity % Maximal Binding” value in test [2] (Table 1) is reported as “* (50 < *)”.
On to `CCN1C(=O)S/C(=C\c2ccc(-c3ccc([N+](=O)[O-])cc3)o2)C1=O` [Compound 110, 3-Ethyl-5-[5-(4-nitrophenyl)furan-2-ylmethylene]-thiazolidine-2,4-dione], for which the activity at 50 µM in test [1] (setting [3]) is above 50%. In addition, the “NGF Activity % Maximal Binding” value in test [2] (Table 4) is “* (50 < *)”.
For the compound `O=C1NC(=O)/C(=C\c2ccc(-c3ccc([N+](=O)[O-])cc3Cl)o2)S1` [Compound 33, 5-[5-(2-Chloro-4-nitrophenyl)furan-2-ylmethylene]-thiazolidine-2,4-dione], the activity at 50 µM in test [1] (setting [4]) fell in the range of 10 to 20%. Also, in test [2] (Table 1), the “NGF Activity % Maximal Binding” value is given as “* (50 < *)”.
In the case of `CN1C(=O)NC(=O)/C(=C/c2ccc(-c3cccc(C(=O)O)c3)o2)C1=O` [Compound 77, 3-[5-(1-Methyl-2,4,6-trioxo-tetrahydro-pyrimidin-5-ylidenemethyl)furan-2-yl]benzoic acid], the activity at 50 µM in test [1] is 10 to 20%. Also, the “NGF Activity % Maximal Binding” value in test [2] (Table 2) was “XXX (20 < XXX < 30)”.
Turning to `CCOC(=O)CN1C(=O)S/C(=C\c2ccc(-c3ccc(Cl)c([N+](=O)[O-])c3)o2)C1=O` [Compound 113, {5-[5-(4-Chloro-3-nitrophenyl)furan-2-ylmethylene]-2,4-dioxo-thiazolidin-3-yl}-acetic acid ethyl ester], the activity at 50 µM in test [1] (setting [3]) was above 50%. Also, the “NGF Activity % Maximal Binding” value in test [2] (Table 4) is given as “* (50 < *)”.
For the compound `Cc1cc(C(=O)O)ccc1-c1ccc(/C=C2\SC(=O)N(C)C2=O)o1` [Compound 76, 3-Methyl-4-[5-(3-methyl-2,4-dioxo-thiazolidin-5-ylidenemethyl)furan-2-yl]benzoic acid], the activity at 50 µM in test [1] (setting [5]) was 0 to 10%. Also, in test [2] (Table 2), the “NGF Activity % Maximal Binding” value was “X (40 < X < 50)”.
As to `Cc1c(-c2ccc(C=C3C(=O)NC(=O)NC3=O)o2)ccc([N+](=O)[O-])c1C` [Compound 81, 5-[5-(2,3-Dimethyl-4-nitrophenyl)furan-2-ylmethylene]-pyrimidine-2,4,6-trione], the activity at 50 µM in test [1] lay within 20 to 30%. The “NGF Activity % Maximal Binding” value in test [2] (Table 2) is on record as “XX (30 < XX < 40)”.
Regarding `N=C1NC(=O)C(=Cc2ccc(-c3ccc([N+](=O)[O-])cc3Br)o2)S1` [Compound 103, 5-[5-(2-Bromo-4-nitrophenyl)furan-2-ylmethylene]-2-imino-thiazolidin-4-one], the activity at 50 µM in test [1] (setting [3]) is above 50%. Besides, the “NGF Activity % Maximal Binding” value in test [2] (Table 4) was “* (50 < *)”.
`Cc1c(-c2ccc(C=C3C(=O)NC(=S)NC3=O)o2)ccc([N+](=O)[O-])c1C` [Compound 71, 5-[5-(2,3-Dimethyl-4-nitrophenyl)furan-2-ylmethylene]-2-thioxo-dihydro-pyrimidine-4,6-dione]: the activity at 50 µM in test [1] is 0 to 10%. The “NGF Activity % Maximal Binding” value in test [2] (Table 2) is recorded as “X (40 < X < 50)”.
Regarding `Cc1ccc(N2NC(=O)C(=Cc3ccc(-c4ccc([N+](=O)[O-])cc4Cl)o3)C2=O)cc1C` [Compound 23, 4-[5-(2-Chloro-4-nitrophenyl)furan-2-ylmethylene]-1-(3,4-dimethylphenyl)-pyrazolidine-3,5-dione], in test [1] (setting [4]), the activity at 50 µM lay within 0 to 10%. Moreover, in test [2] (Table 1), the “NGF Activity % Maximal Binding” value is reported as “* (50 < *)”.
On to `CCOC(=O)c1ccc(-c2ccc(/C=C3/SC(=S)N(CC(=O)O)C3=O)o2)cc1` [Compound 68, 4-[5-(3-Carboxymethyl-4-oxo-2-thioxo-thiazolidin-5-ylidenemethyl)furan-2-yl]benzoic acid ethyl ester], for which the activity at 50 µM in test [1] (setting [5]) fell in the range of 0 to 10%. Moreover, in test [2] (Table 2), the “NGF Activity % Maximal Binding” value was “XX (30 < XX < 40)”.
Regarding `CCOC(=O)c1ccc(-c2ccc(/C=C3/NC(=O)N(c4ccccc4)C3=O)o2)cc1` [Compound 54, 4-[5-(2,5-Dioxo-1-phenyl-imidazolidin-4-ylidenemethyl)furan-2-yl]benzoic acid ethyl ester], the activity at 50 µM in test [1] (setting [4]) lay within 30 to 40%. In addition, the “NGF Activity % Maximal Binding” value in test [2] (Table 1) is listed as “* (50 < *)”.
Consider `Cc1cc([N+](=O)[O-])c(C)cc1-c1ccc(C=C2C(=O)NC(=O)NC2=O)o1` [Compound 18, 5-[5-(2,5-Dimethyl-4-nitrophenyl)furan-2-ylmethylene]-pyrimidine-2,4,6-trione], for which the activity at 50 µM in test [1] lay within 0 to 10%. The “NGF Activity % Maximal Binding” value in test [2] (Table 1) is “* (50 < *)”.
On to `Cc1ccc(-c2ccc(/C=C3/NC(=O)NC3=O)o2)cc1[N+](=O)[O-]` [Compound 114, 5-[5-(4-Methyl-3-nitrophenyl)furan-2-ylmethylene]-imidazolidine-2,4-dione], for which, in test [1] (setting [3]), the activity at 50 µM is above 50%. Besides, the “NGF Activity % Maximal Binding” value in test [2] (Table 4) is given as “* (50 < *)”.
Consider `COC(=O)CN1C(=S)N(C)C(=O)/C1=C/c1ccc(-c2ccc([N+](=O)[O-])cc2)o1` [Compound 141, {3-Methyl-5-[5-(4-nitrophenyl)furan-2-ylmethylene]-4-oxo-2-thioxo-imidazolidin-1-yl}-acetic acid methyl ester], for which, in test [1] (setting [3]), the activity at 50 µM was above 50%. Besides, the “NGF Activity % Maximal Binding” value in test [2] (Table 4) is given as “* (50 < *)”.
In the same order, the values of `COC(=O)c1ccc(-c2ccc(/C=C3/NC(=O)N(c4cccc(Cl)c4)C3=O)o2)cc1` [Compound 128, 4-{5-[1-(3-Chlorophenyl)-2,5-dioxo-imidazolidin-4-ylidenemethyl]furan-2-yl}benzoic acid methyl ester] are above 50% and “* (50 < *)”.
